{"source": "patent US5728709A", "about": "“Alkyl and aralkyl-substituted pyrrolocarbazole derivatives that stimulate platelet production” (Kyowa Hakko Kogyo Co., Ltd., priority 1995, dated 1998)", "key": {"[1]": {"test_system": "Megakaryocyte Colony Formation", "assay": "Megakaryocyte Colony Formation-Stimulating Activity", "type": "cell-based, Balb/c mouse", "settings": "IL-3 present, 7 days culture, relative to control (IL-3 alone) = 100", "method": "An eight-week-old Balb/c mouse was killed. Its femurs and cervical vertebrae were taken out and both ends thereof were cut off. Bone marrow cells were collected from the pieces cut off from the femurs and cervical vertebrae using a syringe containing IMDM (430-2200EA manufactured by Gibco Co.), and blown into a test tube. The test tube was allowed to stand for 5 minutes, and the supernatant was collected with a pipet. Each of the test compounds at various concentrations was separately added to a separate reaction mixture corltaining the bone marrow cells (50,000 cells), bovine serum albumin (2%: A4508, manufactured by Sigma Co.), transferrin (600 μg/ml: 652202, manufactured by Boehringer Mannheim Co.), IL-3 (100 U/ml) , cholesterol (16 μg/ml: 036-0641, manufactured by Wako Co.) and agar (0.6%: 0142-02, manufactured by Difco Laboratories);Then, 1 ml each of the mixtures was put into a 35-mm dishes (manufactured by Lux Co.); and cultured at 37° C., 5% CO2, and relative humidity of not less than 95%, for 7 days. A control was prepared by adding IL-3 alone to the bone marrow cells. After the completion of the culturing, the resultant agar was dried by using filter paper (1001-055, manufactured by Whatman Co.), fixed with 2.5% glutaraldehyde, followed by acetylcholinesterase staining (ACHE staining).\nACHE staining was carried out according to the following method:\nACHE staining: To each sample was added a solution containing 0.67 mg/ml acetylthiocholine iodide, 2.94 mg/ml sodium citrate, 7.5 mg/ml copper (II) sulfate, and 1.65 mg/ml potassium ferricyanide. Then, the mixture was allowed to stand at room temperature in the dark for 4 to 6 hours.\nA group of 4 or more megakaryocytes which were stained reddish brown was regarded as one colony, and the number of colonies per dish was calculated using a microscope.\nThe results are shown in Table 5 as values relative to the control. (In the table, the relative values were calculated on the basis of the control defined as 100)."}, "Platelet Production": {"test_system": "Platelet Production", "assay": "Platelet Production-Stimulating Activity in Mice", "type": "in vivo", "settings": "Mus musculus, 360 h, male Balb/c mice, 15th day, control = 100, read-out: Ratio of increase (number of platelets, A/B×100); for response vs control in vivo at 50 mg/kg: 50 mg/kg i.p. once a day for 5 days", "method": "A test compound was intraperitoneally (i. p.) or subcutaneously (s. c.) administered to 7-week-old male Balb/c mice once a day for consecutive 5 days (test group, 4 mice per group). A control group (4 mice per group) was administered only a solvent (5% Tween 80/water) alone. On the 15th day from the start of the administration, blood was collected from the fundus oculi vein of each mouse, and the number of platelets was counted with a micro counter (Model CC-180A, manufactured by Toa Iryo Denshi Co.). The rate (%) of increase in the number of platelets in the test group which had been administered test compounds over the control group was calculated according to the following formula to evaluate the effect of the test compound.\n[Ratio of increase]=A/B×100\nA: the number of platelets in the test group\nB: the number of platelets in the control group"}, "[2]": {"settings": "sc, free base, 10 mg/kg s.c. once a day for 5 days"}, "[3]": {"settings": "sc, 10 mg/kg s.c. once a day for 5 days"}}, "note": "Read-outs that look alike come from different tables or passages of the source.", "data": [{"smiles": "CN1C(=O)c2c(-c3ccccc3N)cc3c(c2C1=O)c1ccccc1n3Cc1ccc(N)cc1", "note": "[Compound 17]", "values": [{"measurement": "Rel. Value (megakaryocyte colony formation, control defined as 100)", "setting": "[1]; 1 nM", "result": 123}]}, {"smiles": "CC(CN(C)C)Oc1ccccc1-c1cc2c(c3c1C(=O)N(C)C3=O)c1ccccc1n2C", "note": "(stereo not shown) [Compound 102]", "values": [{"measurement": "Rel. Value (megakaryocyte colony formation, control defined as 100)", "setting": "[1]; 1 nM", "result": 142}, {"measurement": "response vs control in vivo at 10 mg/kg", "setting": "Platelet Production; [2]", "result": 123, "unit": "%"}]}, {"smiles": "CN(C)CCOc1ccc(Br)cc1-c1cc2c(c3c1C(=O)N(C)C3=O)c1ccccc1n2C", "note": "[Compound 130]", "values": [{"measurement": "response vs control in vivo at 10 mg/kg", "setting": "Platelet Production; [2]", "result": 295, "unit": "%"}]}, {"smiles": "CN(C)CCOc1ccccc1-c1cc2c(c3c1C(=O)N(C)C3=O)c1cc(C=O)ccc1n2C", "note": "[Compound 177]", "values": [{"measurement": "Rel. Value (megakaryocyte colony formation, control defined as 100)", "setting": "[1]; 10 nM", "result": 120}]}, {"smiles": "CN(C)CCOc1ccc(C=O)cc1-c1cc2c(c3c1C(=O)N(C)C3=O)c1cc(Br)ccc1n2C", "note": "[Compound 160]", "values": [{"measurement": "Rel. Value (megakaryocyte colony formation, control defined as 100)", "setting": "[1]; 10 nM", "result": 120}, {"measurement": "response vs control in vivo at 10 mg/kg", "setting": "Platelet Production; [3]", "result": 117, "unit": "%"}]}, {"smiles": "CN1C(=O)c2c(-c3ccccc3NCCO)cc3c(c2C1=O)c1ccccc1n3C", "note": "[Compound 37]", "values": [{"measurement": "Rel. Value (megakaryocyte colony formation, control defined as 100)", "setting": "[1]; 1 nM", "result": 130}]}, {"smiles": "CN(C)CC(=O)Nc1ccccc1-c1cc2c(c3c1C(=O)N(C)C3=O)c1ccccc1n2C", "note": "[Compound 56]", "values": [{"measurement": "Rel. Value (megakaryocyte colony formation, control defined as 100)", "setting": "[1]; 1 nM", "result": 116}]}, {"smiles": "CCN(CC)CCC(=O)Nc1ccccc1-c1cc2c(c3c1C(=O)N(C)C3=O)c1ccccc1n2C", "note": "[Compound 60]", "values": [{"measurement": "Rel. Value (megakaryocyte colony formation, control defined as 100)", "setting": "[1]; 1 nM", "result": 110}]}, {"smiles": "CN(C)CCOc1ccc(N(C)C)cc1-c1cc2c(c3c1C(=O)N(C)C3=O)c1ccccc1n2C", "note": "[Compound 170]", "values": [{"measurement": "Rel. Value (megakaryocyte colony formation, control defined as 100)", "setting": "[1]; 1 nM", "result": 125}, {"measurement": "response vs control in vivo at 10 mg/kg", "setting": "Platelet Production; [3]", "result": 138, "unit": "%"}]}, {"smiles": "CN1C(=O)c2c(-c3ccccc3N)cc3[nH]c4ccccc4c3c2C1=O", "note": "[Compound 11]", "values": [{"measurement": "Rel. Value (megakaryocyte colony formation, control defined as 100)", "setting": "[1]; 10 nM", "result": 128}]}, {"smiles": "CN(C)CCNc1ccc([N+](=O)[O-])cc1-c1cc2c(c3c1C(=O)N(C)C3=O)c1ccccc1n2C", "note": "[Compound 79]", "values": [{"measurement": "response vs control in vivo at 25 mg/kg", "setting": "Platelet Production; ip, 25 mg/kg i.p. once a day for 5 days", "result": 180, "unit": "%"}]}, {"smiles": "CN1C(=O)c2c(-c3ccccc3[N+](=O)[O-])cc3c(c2C1=O)c1ccccc1n3CCCCN1CCOCC1", "note": "[Compound 34]", "values": [{"measurement": "Rel. Value (megakaryocyte colony formation, control defined as 100)", "setting": "[1]; 0.1 nM", "result": 114}]}, {"smiles": "CN(C)CCNc1ccc(Br)cc1-c1cc2c(c3c1C(=O)N(C)C3=O)c1ccccc1n2C", "note": "[Compound 82]", "values": [{"measurement": "Rel. Value (megakaryocyte colony formation, control defined as 100)", "setting": "[1]; 10 nM", "result": 119}]}, {"smiles": "CN(C)CCNc1ccccc1-c1cc2c(c3c1C(=O)N(C)C3=O)c1ccccc1n2C", "note": "[Compound 40]", "values": [{"measurement": "Rel. Value (megakaryocyte colony formation, control defined as 100)", "setting": "[1]; 1 nM", "result": 138}, {"measurement": "response vs control in vivo at 50 mg/kg", "setting": "Platelet Production; ip", "result": 174, "unit": "%"}]}, {"smiles": "CN(C)CCCn1c2ccccc2c2c3c(c(-c4ccccc4NCCN(C)C)cc21)C(=O)N(C)C3=O", "note": "[Compound 36]", "values": [{"measurement": "Rel. Value (megakaryocyte colony formation, control defined as 100)", "setting": "[1]; 10 nM", "result": 149}]}, {"smiles": "CN(C)CCCn1c2ccccc2c2c3c(c(-c4ccccc4[N+](=O)[O-])cc21)C(=O)N(C)C3=O", "note": "[Compound 24]", "values": [{"measurement": "Rel. Value (megakaryocyte colony formation, control defined as 100)", "setting": "[1]; 1 nM", "result": 125}, {"measurement": "response vs control in vivo at 10 mg/kg", "setting": "Platelet Production; ip, 10 mg/kg i.p. once a day for 5 days", "result": 125, "unit": "%"}]}, {"smiles": "CN(C)CCOc1ccccc1-c1cc2c(c3c1C(=O)N(C)C3=O)c1ccccc1n2C", "note": "[Compound 66]", "values": [{"measurement": "Rel. Value (megakaryocyte colony formation, control defined as 100)", "setting": "[1]; 10 nM", "result": 119}, {"measurement": "response vs control in vivo at 50 mg/kg", "setting": "Platelet Production; ip", "result": 206, "unit": "%"}]}, {"smiles": "CN(C)CCn1c(=O)c2c(c3c(c4c5ccccc5n(C)c42)C(=O)N(C)C3=O)c2ccccc21", "note": "[Compound 93]", "values": [{"measurement": "Rel. Value (megakaryocyte colony formation, control defined as 100)", "setting": "[1]; 0.1 nM", "result": 119}, {"measurement": "response vs control in vivo at 50 mg/kg", "setting": "Platelet Production; ip", "result": 176, "unit": "%"}]}, {"smiles": "CC(=O)c1ccc2c(c1)c1c3c(c(-c4ccccc4OCCN(C)C)cc1n2C)C(=O)N(C)C3=O", "note": "[Compound 180]", "values": [{"measurement": "response vs control in vivo at 10 mg/kg", "setting": "Platelet Production; [3]", "result": 189, "unit": "%"}]}, {"smiles": "CN(C)CCCn1c2ccccc2c2c3c(c(-c4ccccc4N(C)C)cc21)C(=O)N(C)C3=O", "note": "[Compound 26]", "values": [{"measurement": "Rel. Value (megakaryocyte colony formation, control defined as 100)", "setting": "[1]; 10 nM", "result": 110}]}, {"smiles": "CN(C)CCCNc1ccccc1-c1cc2c(c3c1C(=O)N(C)C3=O)c1ccccc1n2C", "note": "[Compound 51]", "values": [{"measurement": "Rel. Value (megakaryocyte colony formation, control defined as 100)", "setting": "[1]; 10 nM", "result": 141}]}, {"smiles": "CN(C)CCOc1ccc(OCc2ccccc2)cc1-c1cc2c(c3c1C(=O)N(C)C3=O)c1ccccc1n2C", "note": "[Compound 147]", "values": [{"measurement": "response vs control in vivo at 10 mg/kg", "setting": "Platelet Production; [3]", "result": 154, "unit": "%"}]}, {"smiles": "CN(C)CCOc1c(N)cccc1-c1cc2c(c3c1C(=O)N(C)C3=O)c1ccccc1n2C", "note": "[Compound 203]", "values": [{"measurement": "response vs control in vivo at 10 mg/kg", "setting": "Platelet Production; [3]", "result": 146, "unit": "%"}]}, {"smiles": "CN1C(=O)c2c(-c3ccccc3[N+](=O)[O-])cc3[nH]c4ccccc4c3c2C1=O", "note": "[Compound 10]", "values": [{"measurement": "Rel. Value (megakaryocyte colony formation, control defined as 100)", "setting": "[1]; 1 nM", "result": 120}]}, {"smiles": "Nc1ccccc1-c1cc2[nH]c3ccccc3c2c2c1C(=O)N(Cc1ccccc1)C2=O", "note": "[Compound 5]", "values": [{"measurement": "Rel. Value (megakaryocyte colony formation, control defined as 100)", "setting": "[1]; 1 nM", "result": 117}, {"measurement": "response vs control in vivo at 50 mg/kg", "setting": "Platelet Production; ip", "result": 111, "unit": "%"}]}, {"smiles": "O=C1c2c(-c3ccccc3[N+](=O)[O-])cc3[nH]c4ccccc4c3c2C(=O)N1Cc1ccccc1", "note": "[Compound 1]", "values": [{"measurement": "Rel. Value (megakaryocyte colony formation, control defined as 100)", "setting": "[1]; 1 nM", "result": 147}]}]}
